Measured values: US20030157502A1, “Chemotherapeutant screening method” (priority 1999, published 2003)
Where two headings read alike, the source gives them in different places. Starred links: 1 amine or outer side, 2 acyl side, 3 side chain; linkers in the order of their positions; H or OH if unused. Positions of bridges follow the written chain, without caps; N, C: chain ends. Non-standard residues stand in square brackets, D forms with d. Residues, ends and D or L forms follow the SMILES beside them. Chains are numbered I, II in the order given. Actinocin(9to1) = Cc1c2oc3c(C)ccc(C(=O)[*:1])c3nc-2c(C(=O)[*:2])c(N)c1=O; NMeV = CN[C@H](C(=O)O)C(C)C; Sar = CNCC(=O)O

Experiments:
HepG2 cells = test: Apoptosis by PI exclusion and forward/side scatter (FSC/SSC); assay type: cell-based; settings: 100 μg/ml 5-FU, after 48 hours
Procedure: FIG. 1: Chemotherapeutic agents effect CD95-mediated death in HepG2 cells HepG2 cells were cultured almost up to confluence and then incubated with 100 μg/ml 5-FU over the indicated periods in the presence of either an isotype-adapted control antibody or the anti-CD95L antibody NOK-1 (50 μg/ml). The same experiment was carried out with the addition of CD95-Fc (50 μg/ml). Apoptosis was determined by PI exclusion and measurement of the forward/side scatter (FSC/SSC). The data shown are average values with standard deviations from three samples.
Following the corresponding treatment, the cells were trypsinated with 1% trypsin-EDTA for 5 min., washed twice with PBS and stained using 2.5 μg/ml propidium iodide (PI; Sigma). The stain uptake was measured by means of a “FACScan” cytometer (Becton Dickinson GmbH, Heidelberg, Germany) using the “CellQuest” Software. Changes in the forward/side scatter (FSC/SSC) of the cell population were evaluated as well. For quantifying the DNA fragmentation the supernatants were centrifuged at 200×g, the cells were trypsinated and washed as indicated above. […] The nuclei were then analyzed as regards their DNA content by means of flow cytometry (Nicoletti et al., Journal of Immunological Methods 139 (1991), 271). […]

CD95L promoter = CD95L promoter luciferase reporter assay in transiently transfected Hep3B cells; assay type: cell-based, human; settings: for effect of the combination on activation of the CD95L promoter: 5-FU plus etoposide, 48 hours
Procedure: Every bar represents the calculated value from treated/untreated cells. The transfection efficiency in A and B was monitored by cotransfection of a renilla Luciferase construct controlled by a basal promoter. […] B: Titration of 5-FU. Hep3B cells were transiently transfected with the −36/+100 promoter construct. […] The cells were lyzed and the luciferase activity was determined.
The cotransfected cells were then treated with 100 μg/ml 5-FU for 48 hours or not treated. The transfection efficiency was normalized by either cotransfection of an expression vector for chloramphenicol transferase (CAT) or renilla luciferase (both controlled by a basal promoter). The luciferase activity was measured using the “dual luciferase” assay (Promega company) in accordance with the manufacturer's instructions, and the CAT activity was determined by means of a commercially available CAT ELISA. Average values (with standard deviation) from different independent experiments are shown. B: “Dual luciferase” assay with Hep3B cells cotransfected with the described CD95L promoter construct and a renilla-luciferase expression vector (as a control for the transfection efficiency). The cells were collected at the indicated times. In addition, the protein content of the transfected cells was determined. The data are average values (with standard deviation) from three samples of a representative experiment. Four independent experiments were carried out.
Hep3B cells were transfected with the −36/+100 construct (CD95L prom wt) or the APX4 construct (mutated −36/+100 CD95L.luc; Cd95L prom mut). The transfection efficiency was monitored by cotransfection with renilla luciferase. Following transfection the cells were treated with 5-FU (100 μg/ml) for 48 hours. The luciferase activity was measured and the multiplication of induction was calculated.
One day before the transfection, the cells were plated out with a density of 0.6×10^6/9 cm Petri dishes. The medium was exchanged two hours before the transfection. The transfection was carried out by means of the method based on calcium phosphate precipitation. In summary, 5 to 40 μg DNA were diluted in 500 μl of a calcium chloride solution. The DNA/calcium chloride mixture was added drop-wise to 500 μl HBS. Precipitation was carried out at room temperature for 20 min., and then the precipitation mixture was added to the culture medium. The precipitate was allowed to stay on the cells for 12 to 24 hours. Thereafter, the cells were shock-treated using 16% glycerin in full medium for 3 min. Following three wash steps using PBS, the cells were cultured in medium supplemented with 20% FCS for at least six hours. Finally, the cells were distributed over 6-well plates, and the chemotherapeutic treatment was started for different periods.
After three wash steps in PBS, the cells were lyzed in 200 μl passive lysis buffer (Promega). Following 20 minutes of incubation at room temperature, the cells were scratched off the plates. The lyzates were subjected to two freeze/thaw cycles and then cell debris was removed by centrifugation.

CD95L-mRNA [1] = test: CD95L-mRNA expression by RT-PCR in Hep3B cells; assay type: cell-based, human; settings: Hep3B (p53 -/-) cells
c-Jun [2] = test: c-Jun immunofluorescence in Hep3B cells; assay type: cell-based, human; settings: 5-FU 100 μg/ml for 40 hours
Procedure: (§1) Thereafter, the cells were either not treated (A) or treated with 5-FU (100 μg/ml) for 40 hours (B), fixed and stained as described. C+D: Human primary hepatocytes were isolated as described in Example 1 and seeded onto culture dishes. Thereafter, the cells were either not treated (C) or treated with 5-FU (50 μg/ml) for 40 hours (D), fixed and stained with an antibody specific to c-Jun.
Cultured Hep3B cells or freshly isolated human primary hepatocytes were plated onto Lab-Tek™ chamber slides (Renner GmbH, Darmstadt, Germany). Following culturing over a period of at least two days, the cells were treated with chemotherapeutic agents. Thereafter, fixation in methanol/acetone (5 min. or 10 sec. at −20° C.) was carried out. Then, the cells were initially incubated at 37° C. for 1 hour with the specific primary antibody against human c-Jun (Santa Cruz GmbH, Heidelberg, Germany), and after three wash steps using PBS, the cells were covered with fluorescein-isothiocyanate-conjugated goat anti-rabbit IgG (Dianova, Hamburg, Germany) for 1 hour. Non-specific staining was monitored by incubation with mouse or rabbit immunoglobulins in place of the specific primary antibody or by blocking the primary antibody with the immunogenic peptide. The slides were covered with cover glasses and evaluated by means of a fluorescence microscope. […]

c-Jun [3] = test: c-Jun immunofluorescence in primary human hepatocytes; assay type: cell-based; settings: 5-FU 50 μg/ml for 40 hours
Procedure: as §1
Primary human hepatocytes were obtained by means of a 2-step perfusion technique from healthy liver tissue of patients undergoing partial liver resection. For this purpose, a cannula was introduced into a blood vessel of the removed liver tissue and it was perfused with Ca-free and Mg-free “Hank's balanced salt solution (HBSS; Gibco BRL) containing 0.5 mM EDTA and 50 mM HEPES for 15 to 20 min. […] The viability was determined by means of the trypan blue exclusion method. […]
Cultured Hep3B cells or freshly isolated human primary hepatocytes were plated onto Lab-Tek™ chamber slides (Renner GmbH, Darmstadt, Germany). […] Non-specific staining was monitored by incubation with mouse or rabbit immunoglobulins in place of the specific primary antibody or by blocking the primary antibody with the immunogenic peptide. The slides were covered with cover glasses and evaluated by means of a fluorescence microscope. […]

CD95L-mRNA [4] = assay type: cell-based, human; settings: for upward regulation of CD95L-mRNA: HepG2 (wt p53) cells; for effect on transcription or translation of the housekeeping gene β-actin: subtoxic concentrations
SKW6.4 cells = test: 51Cr release assay, Hep3B effector cells and SKW6.4 target cells; assay type: cell-based, human; settings: Hep3B treated with 100 μg/ml 5-FU 48 hours before incubation
Procedure: FIG. 3: The treatment with chemotherapeutic agents results in an upward regulation of functional CD95L A ^51Cr release assay with Hep3B cells as effectors and SKW6.4 cells as target was used. Hep3B cells were cultured in 96-well plates treated with 5-FU. After 48 hours, the chemotherapeutic agents were removed from the culture medium and ^51Cr-labeled SKW6.4 cells were added with either a control antibody or the anti-CD95L antibody NOK-1. Following incubation overnight, the supernatants were measured in a gamma counter. Relative lysis was calculated as indicated in Example 1. E/T is the ratio between effector cells and target cells. Every series of concentration was carried out threefold. The diagram represents an experiment from a series of independent experiments having the same result.
CD95L-mediated cytotoxicity induced by chemotherapy was studied. Hep3B cells (effector cells) were seeded into 96-well plates and treated with chemotherapeutic agents for 48 hours. […] After 12 to 16 hours, 100 μl supernatant of each well were collected and measured in a gamma counter. The specific lysis was calculated in accordance with formula L=(E−S)/(T−S), E representing the gamma counts of the unknown sample, S being the spontaneous lysis of the labeled target cells in the medium without effector cells, and T representing the maximum release of the target cells kept in 2 N HCl. […]

Compound	effect of the combination on activation of the CD95L promoter (CD95L promoter; Hep3B cells)	upward regulation of CD95L-mRNA (CD95L-mRNA [1])	upward regulation of CD95L-mRNA (CD95L-mRNA [4])	effect on the upward regulation of CD95L following treatment with chemotherapeutic agents (CD95L-mRNA [4])	effect on transcription or translation of the housekeeping gene β-actin (CD95L-mRNA [4])	further results
O=c1[nH]cc(F)c(=O)[nH]1 [5-FU, 5-fluorouracil]	synergistic effect	regulate upward	regulate upward	–	–	apoptosis rate (HepG2 cells): 43%; inducibility of CD95L promoter luciferase constructs (-1204/+100 to -36/+100) (CD95L promoter; Hep3B cells transiently transfected): inducible; inducibility of the AP-1-mutated -36/+100 reporter construct (CD95L promoter; Hep3B cells, 100 μg/ml 5-FU, 48-hour treatment): almost fully eliminated; time of maximum activation of the -36/+100 construct (CD95L promoter; Hep3B cells, -36/+100 luciferase construct): 64 h; response of the -36/+19 construct (lacks AP-1 site) (CD95L promoter; Hep3B cells, incubation up to 64 hours): did not respond; AP-1 (c-Jun) nuclear staining (c-Jun [2]): widely accumulated AP-1 within the nucleus; AP-1 (c-Jun) nuclear staining (c-Jun [3]): intensive nuclear reactivity; killing of CD95-bearing SKW6.4 cells by treated Hep3B cells (SKW6.4 cells): significant killing
bleomycin	–	regulated upward	regulated upward	–	–	–
C[C@@H]1C[C@@H]([C@H](O)CC2CC(=O)NC(=O)C2)C(=O)[C@@H](C)C1 [cycloheximide]	–	–	–	reduced efficiently	no effect	–
Cc1c2oc3c(C)ccc(C(=O)N[C@@H]4C(=O)N[C@H](C(C)C)C(=O)N5CCC[C@H]5C(=O)N(C)CC(=O)N(C)[C@@H](C(C)C)C(=O)O[C@@H]4C)c3nc-2c(C(=O)N[C@@H]2C(=O)N[C@H](C(C)C)C(=O)N3CCC[C@H]3C(=O)N(C)CC(=O)N(C)[C@@H](C(C)C)C(=O)O[C@@H]2C)c(N)c1=O [actinomycin C1] (I: T[dV]P[Sar][NMeV] / II: T[dV]P[Sar][NMeV]; ester I:1-I:C, II:1-II:C; linker I:N-II:N via Actinocin(9to1))	–	–	–	reduced efficiently	no effect	–
COc1cc([C@@H]2c3cc4c(cc3[C@@H](O[C@@H]3O[C@@H]5CO[C@@H](C)O[C@H]5[C@H](O)[C@H]3O)[C@H]3COC(=O)[C@H]23)OCO4)cc(OC)c1O [etoposide]	synergistic effect	regulate upward	regulate upward	–	–	–
